Data taken from PMC11127902, “Rescuing tri-heteromeric NMDA receptor function: the potential of pregnenolone-sulfate in loss-of-function GRIN2B variants” (Cellular and Molecular Life Sciences: CMLS, 2024).
Where two headings read alike, the source gives them in different places.

Legend:
[1] = system: Double Variant Tri-Heteromeric NMDAR (GluN2A-H485A, GluN2B-H486A); set-up: method as in PMID 24607230; settings: glutamate; ref 8; cited from earlier work
[2] = system: Mixed di-heteromeric GluN2A-wt/GluN2A-T690A; set-up: method as in PMID 24607230; settings: glutamate; ref 8; cited from earlier work
[3] = system: Pure variant di-heteromeric GluN2B-C461F; set-up: method as in PMID 27839871; settings: glutamate; ref 21; cited from earlier work
[4] = system: Pure variant di-heteromeric GluN2B-H486A; set-up: method as in PMID 24607230; settings: glutamate; ref 8; cited from earlier work
[5] = system: non-tagged purely di-heteromeric GluN2B-G689S; settings: read-out: Glutamate EC50 (adapted from[16]); non-tagged human receptors; cited from earlier work
[6] = system: Mixed tri-heteromeric GluN2A-wt/ GluN2B-A819T; set-up: method as in PMID 35110392; settings: glutamate; ref 10; cited from earlier work
[7] = system: Mixed tri-heteromeric GluN2A-E551K/ GluN2B-wt; set-up: method as in PMID 35110392; settings: glutamate; ref 10; cited from earlier work
[8] = system: Pure variant di-heteromeric GluN2B-A639V; set-up: method as in PMID 35110392; settings: glutamate; ref 10; cited from earlier work
[9] = system: Mixed tri-heteromeric GluN2A-L649V/ GluN2B-wt; set-up: method as in PMID 35110392; settings: glutamate; ref 10; cited from earlier work
[10] = system: non-tagged purely di-heteromeric GluN2B-G689C; settings: read-out: Glutamate EC50 (adapted from[16]); non-tagged human receptors; cited from earlier work
[11] = system: Pure variant di-heteromeric GluN2A-S644G; set-up: method as in PMID 32577763; settings: glutamate; di-heteromer section; cited from earlier work
[12] = system: Pure variant di-heteromeric GluN2B-M818T; set-up: method as in PMID 28377535; settings: glutamate; ref 25; cited from earlier work
[13] = system: Mixed di-heteromeric GluN2A-wt/GluN2A-P552R; set-up: method as in PMID 28095420; settings: glutamate; ref 32; cited from earlier work
[14] = system: Pure variant di-heteromeric GluN2A-P552R; set-up: method as in PMID 28095420; settings: glutamate; di-heteromer section; cited from earlier work
[15] = system: wt di-heteromeric GluN2B NMDAR; settings: glutamate, cited from earlier work
[16] = target: Tri-heteromeric GluN2A-wt/GluN2B-wt (Rattus norvegicus, UniProt P35439+Q00959+Q00960, A876H/F846L/G856D/H848F/K857R/M851T/M860L/Q845K/V861L); assay: TEVC in Xenopus oocytes; settings: glutamate dose-response
Method: Two electrode voltage clamp (TEVC) recordings were carried out 24–72 h after mRNA injections, as previously described [17, 37]. We use a commercial amplifier (Warner Instruments, USA) and Digitizer (Digidata-1550B; Molecular Devices, USA), controlled by the pClamp10 software (Molecular Devices, USA). Electrode were made by pulling glass capillaries (Narishige, Japan) filled with 3 M KCl, into which we inserted chlorinated silver wires. […] For hERG channel recordings, oocytes were clamped at (− 60) mV for 1 s, followed by a voltage jump to 20 mV for 4 s, and an additional voltage jump to (− 50) mV for 6 s and return to baseline voltage (see Supplementary. 6f), as previously described [53].
When assessing potentiation by PS, all other solutions also included equal amounts of the DMSO carrier (0.2%).
Electrophysiology data were analyzed by Clampfit 11.2 (Molecular Devices, USA), plotted using GraphPad 8 or SigmaPlot 11(Systat software, Inc.). […] In all TEVC recordings in oocytes, the responses were normalized to current amplitude obtained from that individual cell. […] All data are shown as mean ± SEM. In all experiments N indicates the number of independent experiments, whereas n indicates the number of cells recorded. In each experiment, data underwent normality test prior to statistical assessment. Normally distributed data were assessed for significance by using paired t-test or one-way ANOVA for multiple group comparison and post hoc Tukey test or Dunnett's test. Similarly, in the case of non-normally distributed data significance was assessed by Mann Whitney test or Kruskal–Wallis ANOVA on ranks test followed by Dunn’s multiple comparison post hoc; n.s., non-significant; *p < 0.05; **p < 0.01; ***p < 0.001. […] Leak expression was evaluated by normalizing the maximal current (Imax) of each ER-retained NMDAR composition to Imax of control group (which was recorded in all experiments). […]

[17] = target: T1, Mixed di-heteromeric GluN2B-wt/GluN2B-G689S (Rattus norvegicus, UniProt P35439+Q00960, G689S); assay: TEVC in Xenopus oocytes; assay type: cell-based
T1 construct: expressed in transfected cells; host or cells: Xenopus laevis oocytes, mRNA injection
Source text: (§1) Aliquots were thawed before each experiment.

[18] = target: T2, Purely di-heteromeric GluN2B-wt (GluN1-1a-wt + GluN2B-wt-C1/C2) (Rattus norvegicus, UniProt P35439+Q00959+Q00960, A876H/F846L/G856D/H848F/K857R/M851T/M860L/Q845K/V861L); assay: TEVC in Xenopus oocytes; assay type: cell-based; settings: glutamate dose-response
T2 construct: expressed in transfected cells; host or cells: Xenopus laevis oocytes, mRNA injection
Source text: as §1

[19] = target: T3, Purely di-heteromeric GluN2B-G689C (C1/C2) (Rattus norvegicus, UniProt P35439+Q00959+Q00960, A876H/F846L/G689C/G856D/H848F/K857R/M851T/M860L/Q845K/V861L); assay: TEVC in Xenopus oocytes; assay type: cell-based
T3 construct: expressed in transfected cells; host or cells: Xenopus laevis oocytes, mRNA injection
Source text: as §1

[20] = target: T4, Purely di-heteromeric GluN2B-G689S (C1/C2) (Rattus norvegicus, UniProt P35439+Q00959+Q00960, A876H/F846L/G689S/G856D/H848F/K857R/M851T/M860L/Q845K/V861L); assay: TEVC in Xenopus oocytes; assay type: cell-based
T4 construct: expressed in transfected cells; host or cells: Xenopus laevis oocytes, mRNA injection
Source text: as §1

[21] = system: Mixed tri-heteromeric GluN2A-wt/ GluN2B-G543R; set-up: method as in PMID 35110392; settings: glutamate; ref 10; cited from earlier work
[22] = system: Mixed tri-heteromeric GluN2A-S644G/ GluN2B-wt; set-up: method as in PMID 35110392; settings: glutamate; ref 10; cited from earlier work
[23] = system: Pure variant di-heteromeric GluN2A-L812M; set-up: method as in PMID 24504326; settings: glutamate; ref 39; cited from earlier work
[24] = system: Mixed di-heteromeric GluN2B-wt/GluN2B-E413G; set-up: method as in PMID 27839871; settings: glutamate; ref 21; cited from earlier work
[25] = system: Mixed di-heteromeric GluN2A-wt/GluN2A-H485A; set-up: method as in PMID 24607230; settings: glutamate; ref 8; cited from earlier work
[26] = system: Pure variant di-heteromeric GluN2B-A819T; set-up: method as in PMID 28377535; settings: glutamate; ref 25; cited from earlier work
[27] = compared to GluN2B-wt-C1/C2 receptors

T4 sequence (Q00960+Q00959 fused with the stated changes, other chains not shown): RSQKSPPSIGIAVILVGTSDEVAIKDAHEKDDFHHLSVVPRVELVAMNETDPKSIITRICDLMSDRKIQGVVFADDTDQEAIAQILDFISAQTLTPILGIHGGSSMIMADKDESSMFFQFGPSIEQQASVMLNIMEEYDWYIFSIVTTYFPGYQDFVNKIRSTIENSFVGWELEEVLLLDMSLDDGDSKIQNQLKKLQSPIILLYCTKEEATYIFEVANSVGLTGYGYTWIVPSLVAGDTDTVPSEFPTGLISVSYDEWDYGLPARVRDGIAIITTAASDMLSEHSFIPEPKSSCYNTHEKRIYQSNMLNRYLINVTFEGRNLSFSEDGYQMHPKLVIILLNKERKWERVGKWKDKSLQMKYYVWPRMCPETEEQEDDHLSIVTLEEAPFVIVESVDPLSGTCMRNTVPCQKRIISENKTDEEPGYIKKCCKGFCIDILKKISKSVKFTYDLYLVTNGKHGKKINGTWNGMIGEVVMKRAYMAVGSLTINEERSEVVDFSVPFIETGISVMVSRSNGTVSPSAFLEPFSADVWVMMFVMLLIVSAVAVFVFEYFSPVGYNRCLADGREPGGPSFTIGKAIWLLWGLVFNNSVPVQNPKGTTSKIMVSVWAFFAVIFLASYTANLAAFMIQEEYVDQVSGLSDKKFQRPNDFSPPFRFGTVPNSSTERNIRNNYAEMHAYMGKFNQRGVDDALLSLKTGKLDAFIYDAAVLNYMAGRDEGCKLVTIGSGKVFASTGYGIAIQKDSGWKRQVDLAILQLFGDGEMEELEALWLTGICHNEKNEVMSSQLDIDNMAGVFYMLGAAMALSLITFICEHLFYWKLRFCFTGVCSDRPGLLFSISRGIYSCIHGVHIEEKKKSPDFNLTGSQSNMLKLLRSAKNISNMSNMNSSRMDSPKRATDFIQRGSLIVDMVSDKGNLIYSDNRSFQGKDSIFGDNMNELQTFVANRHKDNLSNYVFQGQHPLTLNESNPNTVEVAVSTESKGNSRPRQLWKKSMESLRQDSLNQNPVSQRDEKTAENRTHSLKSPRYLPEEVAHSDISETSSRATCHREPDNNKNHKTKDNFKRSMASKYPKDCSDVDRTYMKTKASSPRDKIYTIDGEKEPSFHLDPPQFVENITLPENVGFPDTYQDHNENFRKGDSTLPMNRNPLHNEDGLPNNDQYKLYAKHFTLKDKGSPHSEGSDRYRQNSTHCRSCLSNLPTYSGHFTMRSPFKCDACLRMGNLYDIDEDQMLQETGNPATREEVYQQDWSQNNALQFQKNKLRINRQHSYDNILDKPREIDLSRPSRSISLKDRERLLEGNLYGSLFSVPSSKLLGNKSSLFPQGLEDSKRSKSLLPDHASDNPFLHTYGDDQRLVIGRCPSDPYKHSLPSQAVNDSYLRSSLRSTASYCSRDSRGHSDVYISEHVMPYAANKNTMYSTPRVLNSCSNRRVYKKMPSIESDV
T3 sequence (Q00960+Q00959 fused with the stated changes, other chains not shown): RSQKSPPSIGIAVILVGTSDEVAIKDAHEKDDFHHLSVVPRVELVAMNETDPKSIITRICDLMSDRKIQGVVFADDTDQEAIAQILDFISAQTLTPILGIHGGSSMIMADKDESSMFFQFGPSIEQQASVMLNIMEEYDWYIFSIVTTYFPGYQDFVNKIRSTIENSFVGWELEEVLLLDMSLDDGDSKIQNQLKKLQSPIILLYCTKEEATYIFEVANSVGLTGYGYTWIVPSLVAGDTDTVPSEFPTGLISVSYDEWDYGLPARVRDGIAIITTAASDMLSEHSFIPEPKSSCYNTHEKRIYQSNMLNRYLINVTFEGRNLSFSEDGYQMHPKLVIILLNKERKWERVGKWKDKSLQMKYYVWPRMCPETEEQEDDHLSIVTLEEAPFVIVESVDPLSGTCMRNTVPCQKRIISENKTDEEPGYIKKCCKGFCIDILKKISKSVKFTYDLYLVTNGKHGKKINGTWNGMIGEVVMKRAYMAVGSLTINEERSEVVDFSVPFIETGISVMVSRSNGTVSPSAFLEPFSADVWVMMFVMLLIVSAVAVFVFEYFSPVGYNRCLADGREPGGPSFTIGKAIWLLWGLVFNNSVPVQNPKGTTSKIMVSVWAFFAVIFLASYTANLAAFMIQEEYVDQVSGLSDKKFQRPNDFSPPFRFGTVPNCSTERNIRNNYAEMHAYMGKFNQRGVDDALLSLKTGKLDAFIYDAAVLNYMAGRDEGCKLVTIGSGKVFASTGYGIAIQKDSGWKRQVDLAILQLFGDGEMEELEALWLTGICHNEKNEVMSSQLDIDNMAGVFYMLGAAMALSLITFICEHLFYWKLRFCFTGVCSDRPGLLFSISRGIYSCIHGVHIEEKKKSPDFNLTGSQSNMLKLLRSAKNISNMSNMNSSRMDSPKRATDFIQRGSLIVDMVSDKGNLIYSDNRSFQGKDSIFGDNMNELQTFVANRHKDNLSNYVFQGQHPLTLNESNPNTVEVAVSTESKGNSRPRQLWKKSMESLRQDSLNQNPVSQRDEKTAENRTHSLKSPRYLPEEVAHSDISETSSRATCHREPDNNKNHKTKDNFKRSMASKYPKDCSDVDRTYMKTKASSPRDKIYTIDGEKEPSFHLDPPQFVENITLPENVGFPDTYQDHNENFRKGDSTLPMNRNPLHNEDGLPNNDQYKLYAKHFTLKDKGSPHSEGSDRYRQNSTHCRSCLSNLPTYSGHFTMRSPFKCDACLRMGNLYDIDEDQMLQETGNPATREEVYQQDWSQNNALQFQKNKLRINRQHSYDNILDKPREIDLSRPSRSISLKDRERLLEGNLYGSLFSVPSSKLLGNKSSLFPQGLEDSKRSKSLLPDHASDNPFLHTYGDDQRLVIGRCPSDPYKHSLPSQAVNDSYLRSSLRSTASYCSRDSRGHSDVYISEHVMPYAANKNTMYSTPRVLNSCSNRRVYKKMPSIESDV
T2 sequence (Q00960+Q00959 fused with the stated changes, other chains not shown): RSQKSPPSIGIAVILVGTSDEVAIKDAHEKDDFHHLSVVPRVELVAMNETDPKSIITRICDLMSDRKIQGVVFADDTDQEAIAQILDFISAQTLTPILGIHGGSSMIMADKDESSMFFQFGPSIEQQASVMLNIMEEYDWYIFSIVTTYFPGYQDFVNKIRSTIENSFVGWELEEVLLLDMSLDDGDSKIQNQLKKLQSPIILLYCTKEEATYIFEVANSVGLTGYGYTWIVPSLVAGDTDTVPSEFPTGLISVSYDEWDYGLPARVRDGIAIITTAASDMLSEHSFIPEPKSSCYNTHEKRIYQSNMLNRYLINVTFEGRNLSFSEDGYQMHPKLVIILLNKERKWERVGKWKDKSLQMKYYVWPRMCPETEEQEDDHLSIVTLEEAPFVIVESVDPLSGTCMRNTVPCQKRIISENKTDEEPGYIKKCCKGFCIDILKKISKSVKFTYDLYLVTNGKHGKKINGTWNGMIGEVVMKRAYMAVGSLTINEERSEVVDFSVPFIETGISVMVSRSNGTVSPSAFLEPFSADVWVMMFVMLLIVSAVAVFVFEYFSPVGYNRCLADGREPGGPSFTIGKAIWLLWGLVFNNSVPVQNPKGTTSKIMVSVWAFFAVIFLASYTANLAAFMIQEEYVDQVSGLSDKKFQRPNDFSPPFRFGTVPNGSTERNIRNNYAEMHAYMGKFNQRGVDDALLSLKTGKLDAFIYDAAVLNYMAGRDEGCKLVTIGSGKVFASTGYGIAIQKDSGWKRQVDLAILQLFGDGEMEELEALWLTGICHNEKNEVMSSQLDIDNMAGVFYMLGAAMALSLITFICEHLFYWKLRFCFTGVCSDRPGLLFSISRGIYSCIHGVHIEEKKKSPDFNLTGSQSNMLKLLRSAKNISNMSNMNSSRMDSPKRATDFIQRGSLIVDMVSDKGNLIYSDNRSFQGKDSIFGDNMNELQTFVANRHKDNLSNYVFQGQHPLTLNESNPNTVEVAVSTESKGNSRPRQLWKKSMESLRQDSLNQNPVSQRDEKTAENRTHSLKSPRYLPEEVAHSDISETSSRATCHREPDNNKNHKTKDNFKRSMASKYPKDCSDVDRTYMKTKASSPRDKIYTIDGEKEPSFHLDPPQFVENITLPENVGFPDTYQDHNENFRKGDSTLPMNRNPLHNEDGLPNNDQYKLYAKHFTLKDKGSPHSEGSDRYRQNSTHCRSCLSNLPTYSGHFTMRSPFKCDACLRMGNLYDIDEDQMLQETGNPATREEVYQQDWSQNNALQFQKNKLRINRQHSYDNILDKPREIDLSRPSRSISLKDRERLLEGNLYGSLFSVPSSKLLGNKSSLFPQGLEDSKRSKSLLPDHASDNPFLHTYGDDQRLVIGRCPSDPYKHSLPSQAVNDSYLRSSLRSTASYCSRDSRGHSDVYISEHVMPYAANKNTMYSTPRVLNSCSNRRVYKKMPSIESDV

For `N[C@@H](CCC(=O)O)C(=O)O` [Glutamate, glutamate], the EC50 [1] is listed as 730 µM, the EC50 [2] is listed as 660 µM and the EC50 [3] is listed as 290 µM. The EC50 [4] was 460 µM, the EC50 [5] was 2500 ± 400 µM and the EC50 [6] was 0.71 µM. For the same molecule, the EC50 [7] was 0.7 µM, the EC50 [8] was 0.28 µM and the EC50 [9] was 0.36 µM. For the same molecule, the EC50 [10] was 1500 ± 200 µM, the EC50 [11] was 0.05 µM and the EC50 [12] was 0.37 µM. For the same molecule, the EC50 [13] was 1.2 µM, the EC50 [14] was 0.64 µM and the EC50 ([15]; control of GluN2B-E413G) was 0.9 µM. For the same molecule, the EC50 ([15]; ref 8) was 1.6 µM, the “Hill coefficient (nH)” value [16] was 0.77 ± 0.22 (N = 3, n = 33) and the “higher (improved) glutamate potency” value ([17]; compared to purely di-heteromeric variant channels) was “~ four-fold”. For the same molecule, the “Hill coefficient (nH)” value ([17]; glutamate dose-response) was 1.02 ± 0.10 n.s (N = 1, n = 13), the “Hill coefficient (nH)” value [18] was 0.86 ± 0.29 (N = 6, n = 38) and the “increase in the EC50 value” [19, 27] was ~ 2000 fold. For the same molecule, the “Hill coefficient (nH)” value ([19]; glutamate dose-response) was 2.04 ± 0.28 (N = 2, n = 13), the “increase in the EC50 value” [20, 27] was > 3000 fold and the “Hill coefficient (nH)” value ([20]; glutamate dose-response) was 2.45 ± 0.41 (N = 2, n = 9). The EC50 [21] was 1.9 µM, the EC50 [22] was 0.49 µM and the EC50 [23] was 0.39 µM. For the same molecule, the EC50 [24] was 21 µM, the EC50 [25] was 220 µM and the EC50 [26] was 0.58 µM.
